Activity and Activity data for ten molecules are collected here from ChEMBL document CHEMBL2074115, “Anthracyclines modulate multidrug resistance protein (MRP) mediated organic anion transport” (Biochim Biophys Acta, 1997).

Counter-ions that a name gives are not always drawn.

Holding throughout (set-up): scale not given: the % may be the effect or the level left
In data set [1] the target is T1, Multidrug resistance-associated protein 1 (MRP1) (Homo sapiens, UniProt P33527). Nature of the data set: TP_TRANSPORTER: inhibition of DNP-SG uptake (DNP-SG: 0.01 uM, MTX: 10 uM) in membrane vesicles from GLC4/ADR cells. It counts as functional, cell membranes, GLC-4/ADR, Membrane vesicle. As to conditions: probe DNP-SG, read-out: Activity.
Data set [2] has as its target T2, Multidrug resistance-associated protein 1 (Homo sapiens, UniProt P33527). The data set is described as follows: TP_TRANSPORTER: inhibition of DNP-SG uptake (DNP-SG: 0.01 uM, Taxol: 10 uM) in membrane vesicles from GLC4/ADR cells. The format is functional, cell membranes, Membrane vesicle. As to conditions: glc-4/adr.
In data set [3] the target is T1, Multidrug resistance-associated protein 1 (MRP1). The data set is described as follows: TP_TRANSPORTER: inhibition of DNP-SG uptake (DNP-SG: 0.01 uM, Idarbicin: 10 uM) in membrane vesicles from GLC4/ADR cells. The format is functional, cell membranes, GLC-4/ADR, Membrane vesicle. The note with it: probe DNP-SG, read-out: Activity.
For data set [4], the target named is T2, Multidrug resistance-associated protein 1. Nature of the data set: TP_TRANSPORTER: inhibition of DNP-SG uptake (DNP-SG: 0.01 uM, TLCAS: 10 uM) in membrane vesicles from GLC4/ADR cells. It counts as functional, cell membranes, Membrane vesicle. The note with it: glc-4/adr.
Data set [5] has as its target T1, Multidrug resistance-associated protein 1 (MRP1). The data set is described as follows: TP_TRANSPORTER: inhibition of DNP-SG uptake (DNP-SG: 0.01 uM, Calcein-AM: 10 uM) in membrane vesicles from GLC4/ADR cells. The format is functional, cell membranes, GLC-4/ADR, Membrane vesicle. As to conditions: probe DNP-SG, read-out: Activity.
The target is the same in data set [6]. The data set is described as follows: TP_TRANSPORTER: inhibition of DNP-SG uptake (DNP-SG: 0.01 uM, TCAS: 10 uM) in membrane vesicles from GLC4/ADR cells. It counts as functional, cell membranes, GLC-4/ADR, Membrane vesicle. The note with it: probe DNP-SG, read-out: Activity.
In data set [7] the target is T2, Multidrug resistance-associated protein 1. The data set is described as follows: TP_TRANSPORTER: inhibition of DNP-SG uptake (DNP-SG: 0.01 uM, ICG: 10 uM) in membrane vesicles from GLC4/ADR cells. The format is functional, cell membranes, Membrane vesicle. The note with it: glc-4/adr.
The target in data set [8] is T1, Multidrug resistance-associated protein 1 (MRP1). The data set is described as follows: TP_TRANSPORTER: inhibition of DNP-SG uptake (DNP-SG: 0.01 uM, TLC: 10 uM) in membrane vesicles from GLC4/ADR cells. It counts as functional, cell membranes, GLC-4/ADR, Membrane vesicle. The note with it: probe DNP-SG, read-out: Activity.
The target is the same in data set [9]. Nature of the data set: TP_TRANSPORTER: inhibition of DNP-SG uptake (DNP-SG: 0.01 uM, Calcein: 500 uM) in membrane vesicles from GLC4/ADR cells. The format is functional, cell membranes, GLC-4/ADR, Membrane vesicle. The note with it: probe DNP-SG, read-out: Activity.
Data set [10] has the same target. The data set is described as follows: TP_TRANSPORTER: inhibition of DNP-SG uptake (DNP-SG: 0.01 uM, VP-16: 10 uM) in membrane vesicles from GLC4/ADR cells. The format is functional, cell membranes, GLC-4/ADR, Membrane vesicle. As to conditions: probe DNP-SG, read-out: Activity.

T1 sequence (P33527 whole entry): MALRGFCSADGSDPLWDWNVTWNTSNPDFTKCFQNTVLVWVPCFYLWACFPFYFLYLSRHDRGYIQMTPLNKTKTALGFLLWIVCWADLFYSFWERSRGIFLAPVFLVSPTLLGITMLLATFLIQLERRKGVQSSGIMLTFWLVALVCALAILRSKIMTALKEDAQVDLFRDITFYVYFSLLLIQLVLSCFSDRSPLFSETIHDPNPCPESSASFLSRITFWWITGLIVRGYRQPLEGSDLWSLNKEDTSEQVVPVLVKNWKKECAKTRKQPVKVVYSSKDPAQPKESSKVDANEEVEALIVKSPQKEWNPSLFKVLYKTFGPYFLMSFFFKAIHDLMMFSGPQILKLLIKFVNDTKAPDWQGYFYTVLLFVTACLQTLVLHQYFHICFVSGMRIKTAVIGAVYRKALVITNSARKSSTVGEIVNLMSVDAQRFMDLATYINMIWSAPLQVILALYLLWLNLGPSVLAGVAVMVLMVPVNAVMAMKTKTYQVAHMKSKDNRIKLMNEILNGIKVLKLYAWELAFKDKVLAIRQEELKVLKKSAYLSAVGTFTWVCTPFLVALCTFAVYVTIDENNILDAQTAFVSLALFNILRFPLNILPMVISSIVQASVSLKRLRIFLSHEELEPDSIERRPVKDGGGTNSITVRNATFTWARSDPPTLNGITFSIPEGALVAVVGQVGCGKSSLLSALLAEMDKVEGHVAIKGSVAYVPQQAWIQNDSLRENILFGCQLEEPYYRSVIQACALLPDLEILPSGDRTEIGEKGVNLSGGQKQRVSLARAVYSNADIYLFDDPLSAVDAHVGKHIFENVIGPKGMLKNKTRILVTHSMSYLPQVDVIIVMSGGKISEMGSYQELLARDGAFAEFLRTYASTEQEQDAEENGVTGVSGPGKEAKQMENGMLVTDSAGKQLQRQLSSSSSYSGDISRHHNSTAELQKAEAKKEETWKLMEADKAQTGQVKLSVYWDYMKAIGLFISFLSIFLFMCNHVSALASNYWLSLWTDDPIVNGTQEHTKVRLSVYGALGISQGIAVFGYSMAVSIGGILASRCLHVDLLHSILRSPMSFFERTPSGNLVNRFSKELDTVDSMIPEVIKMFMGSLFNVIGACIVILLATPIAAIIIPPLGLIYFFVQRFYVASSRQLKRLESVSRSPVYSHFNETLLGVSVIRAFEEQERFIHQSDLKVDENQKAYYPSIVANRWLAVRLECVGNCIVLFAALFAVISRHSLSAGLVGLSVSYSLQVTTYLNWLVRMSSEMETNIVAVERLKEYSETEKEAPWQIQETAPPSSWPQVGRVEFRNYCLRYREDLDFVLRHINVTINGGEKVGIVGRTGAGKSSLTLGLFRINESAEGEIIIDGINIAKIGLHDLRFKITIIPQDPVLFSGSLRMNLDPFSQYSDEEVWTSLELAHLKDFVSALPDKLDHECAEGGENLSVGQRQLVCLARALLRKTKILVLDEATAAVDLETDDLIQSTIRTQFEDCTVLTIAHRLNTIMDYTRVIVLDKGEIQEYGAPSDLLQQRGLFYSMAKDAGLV
T2 sequence (P33527 whole entry): as above

Take `CN(Cc1cnc2nc(N)nc(N)c2n1)c1ccc(C(=O)N[C@@H](CCC(=O)O)C(=O)O)cc1` [METHOTREXATE]: in data set [1], the activity at 10 µM was found to be 82%.
Take `CC(=O)O[C@H]1C(=O)[C@@]2(C)[C@H]([C@H](OC(=O)c3ccccc3)[C@]3(O)C[C@H](OC(=O)[C@H](O)[C@@H](NC(=O)c4ccccc4)c4ccccc4)C(C)=C1C3(C)C)[C@]1(OC(C)=O)CO[C@@H]1C[C@@H]2O` [PACLITAXEL]: the Activity in data set [2] is listed as 66%.
As for `CC(=O)[C@]1(O)Cc2c(O)c3c(c(O)c2[C@@H](O[C@H]2C[C@H](N)[C@H](O)[C@H](C)O2)C1)C(=O)c1ccccc1C3=O` [IDARUBICIN], the activity at 10 µM in [3] came out at 52%.
In data set [4], `C[C@H](CCC(=O)NCCS(=O)(=O)O)C1CC[C@H]2[C@@H]3CC[C@@H]4C[C@H](OS(=O)(=O)O)CC[C@]4(C)[C@H]3CC[C@]12C` (stereo not given in full) returned an Activity of 11%.
On to `CC(=O)OCOC(=O)CN(CC(=O)OCOC(C)=O)Cc1c(OC(C)=O)ccc2c1Oc1c(ccc(OC(C)=O)c1CN(CC(=O)OCOC(C)=O)CC(=O)OCOC(C)=O)C21OC(=O)c2ccccc21`, for which the activity at 10 µM in [5] was 44%.
For the molecule `C[C@H](CCC(=O)NCCS(=O)(=O)O)C1CC[C@H]2[C@@H]3[C@H](O)C[C@@H]4C[C@H](OS(=O)(=O)O)CC[C@]4(C)[C@H]3C[C@H](O)[C@]12C` (stereo not given in full) [TAUROCHOLATE SULFATE], the activity at 10 µM in data set [6] worked out at 76%.
In the case of `CC1(C)C(/C=C/C=C/C=C/C=C2/N(CCCCS(=O)(=O)[O-])c3ccc4ccccc4c3C2(C)C)=[N+](CCCCS(=O)(=O)[O-])c2ccc3ccccc3c21.[Na+]` [INDOCYANINE GREEN], the Activity in [7] was 34%.
Consider `C[C@H](CCC(=O)NCCS(=O)(=O)O)[C@H]1CC[C@H]2[C@@H]3CC[C@@H]4C[C@H](O)CC[C@]4(C)[C@H]3CC[C@]12C` [TAUROLITHOCHOLIC ACID], for which the activity at 10 µM in [8] turned out to be 56%.
As for `O=C(O)CN(CC(=O)O)Cc1cc2c(cc1O)Oc1cc(O)c(CN(CC(=O)O)CC(=O)O)cc1C21OC(=O)c2ccccc21` [OFTASCEINE], the activity at 500 µM in [9] is 40%.
For the molecule `COc1cc([C@@H]2c3cc4c(cc3[C@@H](O[C@@H]3O[C@@H]5CO[C@@H](C)O[C@H]5[C@H](O)[C@H]3O)[C@H]3COC(=O)[C@H]23)OCO4)cc(OC)c1O` [ETOPOSIDE], the activity at 10 µM in data set [10] is 50%.
